Tests used:
gastrin receptor = target: T1, gastrin receptor (Rattus norvegicus, UniProt P30553); assay: gastrin antagonist activity in immature rat stomach assay (pentagastrin dose-response, acid secretion); settings: isolated immature rat stomach, cumulative pentagastrin dose-response curves; for Kb: read-out: Gastrin pKb (converted)
T1 construct: The stomach was excised and flushed with ca. 1 ml of unbuffered physiological saline solution; from tissue; host or cells: isolated whole stomach of immature rats (ca. 21 days old)
T1 sequence (P30553 1-452): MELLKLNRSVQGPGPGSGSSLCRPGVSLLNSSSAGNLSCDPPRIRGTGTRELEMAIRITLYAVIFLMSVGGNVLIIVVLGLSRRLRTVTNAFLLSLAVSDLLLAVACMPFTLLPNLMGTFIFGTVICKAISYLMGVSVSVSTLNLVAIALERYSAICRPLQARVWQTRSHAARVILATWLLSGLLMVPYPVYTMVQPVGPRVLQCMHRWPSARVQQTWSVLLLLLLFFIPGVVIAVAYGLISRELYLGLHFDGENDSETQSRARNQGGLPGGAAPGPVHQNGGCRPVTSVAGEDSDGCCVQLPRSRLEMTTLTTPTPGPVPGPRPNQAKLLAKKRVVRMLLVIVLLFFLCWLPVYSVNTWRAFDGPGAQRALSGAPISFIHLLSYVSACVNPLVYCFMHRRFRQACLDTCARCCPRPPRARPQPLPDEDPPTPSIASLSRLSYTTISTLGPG
Procedure, shortened: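 Isolated, lumen-perfused stomach from immature rats (33-50 g, ca. 21 days) in a 37° organ bath with 3×10^−8 M 5-methylfurmethide, gassed 95% O2/5% CO2. Compound added serosally after 120 min stabilisation; cumulative pentagastrin dose-response curves begun 60 min later, acid secretion followed by perfusate pH.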

CCKB receptor = target: T2, CCKB receptor (Mus musculus, UniProt P56481); assay: CCKB receptor radioligand binding assay in mouse cortical membranes; settings: [125I]-CCK8(S) 200 pM, 150 min at 21±3°; for Ki: read-out: CCKB pKi (converted)
T2 construct: The whole brains from male mice (CD1 22-25 g; Charles River) were removed; from tissue; host or cells: cerebral cortex membranes of male CD1 mice
T2 sequence (P56481 1-453): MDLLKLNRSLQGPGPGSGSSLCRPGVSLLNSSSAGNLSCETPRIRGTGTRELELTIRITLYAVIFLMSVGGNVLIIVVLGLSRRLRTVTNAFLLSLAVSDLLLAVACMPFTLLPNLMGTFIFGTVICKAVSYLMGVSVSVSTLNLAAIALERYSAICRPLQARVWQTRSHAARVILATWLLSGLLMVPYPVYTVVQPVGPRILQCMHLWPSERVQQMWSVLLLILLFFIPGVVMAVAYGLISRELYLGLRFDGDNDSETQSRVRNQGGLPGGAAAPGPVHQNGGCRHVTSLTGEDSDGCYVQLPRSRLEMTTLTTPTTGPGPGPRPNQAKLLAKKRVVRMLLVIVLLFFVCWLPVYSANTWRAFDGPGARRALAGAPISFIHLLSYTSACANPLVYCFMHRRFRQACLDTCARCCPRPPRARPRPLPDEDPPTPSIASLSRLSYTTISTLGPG
Procedure, shortened: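 Bound radioactivity was gamma-counted after rapid GF/B filtration and cold 50 mM Tris-HCl (pH 7.4) washes. The tissue was cerebral cortex from male CD1 mice, prepared as twice-centrifuged membranes in pH 7.2 HEPES/NaCl/KCl/MgCl2/EDTA buffer with bacitracin at 20 mg/ml original wet weight.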

Kb (gastrin receptor) [nM]	Ki (CCKB receptor) [nM]	Compound	Gastrin pKb (gastrin receptor)	CCKB pKi (CCKB receptor)
8.32	47.9	CC1(C)C2CC[C@]1(C)C(c1nc(C(=O)Nc3cccc(C(=O)O)c3)c(CCC34CC5CC(CC(C5)C3)C4)[nH]1)C2 (mixture of isomers) [Example 205, 3-{[5-(2-Adamantan-1-yl-ethyl)-2-[(1R,2RS)-1,7,7-trimethyl-bicyclo[2.2.1]hept-2-yl]-1H-imidazole-4-carbonyl]-amino}-benzoic Acid]		
240	6.46	Cc1ccccc1-c1nc(C(=O)Nc2ccc(Cl)c(C(=O)O)c2)c(CCC23CC4CC(CC(C4)C2)C3)[nH]1 [Example 245, 5-{[5-(2-Adamantan-1-yl-ethyl)-2-o-tolyl-1H-imidazole-4-carbonyl]-amino}-2-chloro-benzoic Acid]		
4.17	174	CC1(C)C2CCC(c3nc(C(=O)Nc4cccc(C(=O)O)c4)c(CCC45CC6CC(CC(C6)C4)C5)[nH]3)C1C2 (centres unmarked) [Example 190, 3-{[5-(2-Adamantan-1-yl-ethyl)-2-(6,6-dimethyl-bicyclo[3.1.1]hept-2-yl)-1H-imidazole-4-carbonyl]-amino}-benzoic Acid]		
1.62	17.8	CC1(c2nc(C(=O)Nc3cccc(C(=O)O)c3)c(CCC34CC5CC(CC(C5)C3)C4)[nH]2)CCCCC1 [Example 199, 3-{[5-(2-Adamantan-1-yl-ethyl)-2-(1-methyl-cyclohexyl)-1H-imidazole-4-carbonyl]-amino}-benzoic Acid]		
263	170	Cc1ccc(C(=O)O)cc1NC(=O)c1nc(C2CCCCC2)[nH]c1CCC12CC3CC(CC(C3)C1)C2 [Example 252, 3-{[5-(2-Adamantan-1-yl-ethyl)-2-cyclohexyl-1H-imidazole-4-carbonyl]-amino}-4-methylbenzoic Acid]		
75.9	60.3	Cc1ccc(NC(=O)c2nc(-c3ccco3)[nH]c2CCC23CC4CC(CC(C4)C2)C3)cc1C(=O)O [Example 187, 5-{[5-(2-Adamantan-1-yl-ethyl)-2-furan-2-yl-1H-imidazole-4-carbonyl]-amino}-2-methyl-benzoic Acid]		
832	3.63	Cc1ccccc1-c1nc(C(=O)Nc2ccc(Br)c(C(=O)O)c2)c(CCC23CC4CC(CC(C4)C2)C3)[nH]1 [Example 246, 5-{[5-(2-Adamantan-1-yl-ethyl)-2-o-tolyl-1H-imidazole-4-carbonyl]-amino}-2-bromo-benzoic Acid]		
7.76	25.7	Cc1ccc(NC(=O)c2nc(C3CCCO3)[nH]c2CCC23CC4CC(CC(C4)C2)C3)cc1C(=O)O (centres unmarked) [Example 188, 5-{[5-(2-Adamantan-1-yl-ethyl)-2-(tetrahydro-furan-2-yl)-1H-imidazole-4-carbonyl]-amino}-2-methyl-benzoic Acid]		
46.8	40.7	Cc1ccc(NC(=O)c2nc(-c3ccccn3)[nH]c2CCC23CC4CC(CC(C4)C2)C3)cc1C(=O)O [Example 179, 5-{[5-(2-Adamantan-1-yl-ethyl)-2-pyridine-2-yl-1H-imidazole-4-carbonyl]-amino}-2methyl-benzoic Acid]		
741	324	Cc1ccccc1-c1nc(CCC23CC4CC(CC(C4)C2)C3)c(C(=O)Nc2ccc(N(C)C)c(C(=O)O)c2)[nH]1 [Example 242, 5-{[5-(2-Adamantan-1-yl-ethyl)-2-o-tolyl-1H-imidazole-4-carbonyl]-amino}-2-dimethylamino-benzoic Acid]		

Further lines, the compound ahead of its results:

Compound	Kb (gastrin receptor) [nM]	Ki (CCKB receptor) [nM]	Gastrin pKb (gastrin receptor)	CCKB pKi (CCKB receptor)
Cc1ccc(C)c(-c2nc(C(=O)Nc3cccc(C(=O)O)c3)c(CCC34CC5CC(CC(C5)C3)C4)[nH]2)c1 [Example 66, 3-{[5-(2-Adamantan-1-yl-ethyl)-2-(2,5-dimethyl-phenyl)-1H-imidazole-4-carbonyl]-amino}-benzoic Acid]	55	200		
5-[(2-Cycloheptylmethyl--phenyl-1H-pyrrole-3-carbonyl)-amino]-isophthalic Acid [Example 13]			6.21	6.44
CCC(CC)c1nc(C(=O)Nc2ccc(C)c(C(=O)O)c2)c(CCC23CC4CC(CC(C4)C2)C3)[nH]1 [Example 113, 5{-[5-(2-Adamantan-1-yl-ethyl)-2-(1-ethyl-propyl)-1H-imidazole-4-carbonyl]-amino}-2-methyl-benzoic Acid]	5.5	7.24		
O=C(O)c1cc(NC(=O)c2cc(-c3ccc4ccccc4c3)[nH]c2CC2CCCCCC2)cc(C(=O)O)c1 [Example 11, 5-[(2-Cycloheptylmethyl-5-naphthalene-2-yl-1H-pyrrole-3-carbonyl)-amino]-isophthalic Acid]	1620	87.1		
O=C(O)c1cc(NC(=O)c2cc(-c3ccccc3)[nH]c2CC23CC4CC(CC(C4)C2)C3)cc(C(=O)O)c1 [Example 1, 5-[(2-Adamantan-1-ylmethyl-5-phenyl-1H-pyrrole-3-carbonyl)-amino]-isophthalic Acid]	468	191		
Cc1ccc(-c2nc(C(=O)Nc3ccc(C)c(C(=O)O)c3)c(CCC34CC5CC(CC(C5)C3)C4)[nH]2)c(C)c1 [Example 151, 5-{[5-(2-Adamantan-1-yl-ethyl)-2-(2,4-dimethyl-phenyl)-1H-imidazole-4-carbonyl]-amino}-2-methyl-benzoic Acid]	21.9	6.31		
CC1(CCc2[nH]c(C3CCCCC3)nc2C(=O)Nc2cccc(C(=O)O)c2)CCCCC1 [Example 133, 3-({2-Cyclohexyl-5-[2-(1-methyl-cyclohexyl)-ethyl]-1H-imidazole-4-carbonyl}-amino)-benzoic Acid]	12	141		
O=C(O)c1cccc(NC(=O)c2nc(-c3c(F)cccc3F)[nH]c2CCC23CC4CC(CC(C4)C2)C3)c1 [Example 61, 3-{[5-(2-Adamantan-1-yl-ethyl)-2-(2,6-difluoro-phenyl)-1H-imidazole-4-carbonyl]-amino}-benzoic Acid]	31.6	148		
O=C(O)Cc1cccc(NC(=O)c2nc(C3CCCCC3)[nH]c2CCC23CC4CC(CC(C4)C2)C3)c1 [Example 84, (3-{[5-(2-Adamantan-1-yl-ethyl)-2-cyclohexyl-1H-imidazole-4-carbonyl]-amino}-phenyl)-acetic Acid]	162	1.02		
O=C(O)c1cccc(NC(=O)c2nc(-c3ccc(F)cc3F)[nH]c2CCC23CC4CC(CC(C4)C2)C3)c1 [Example 60, 3-{[5-(2-Adamantan-1-yl-ethyl)-2-(2,4-difluoro-phenyl)-1H-imidazole-4-carbonyl]-amino}-benzoic Acid]	7.76	141		
O=C(O)c1cccc(NC(=O)c2nc(C3CC4C=CC3C4)[nH]c2CCC23CC4CC(CC(C4)C2)C3)c1 (racemic) [Example 116, (±)-endo-3-{[5-(2-Adamantan-1-yl-ethyl)-2-bicyclo[2.2.1]hept-5-ene-2-yl-1H-imidazole-4-carbonyl]-amino}-benzoic Acid]	2.14	13.5		
Cc1ccccc1-c1nc(NC(=O)c2cccc(C(=O)O)c2)c(CCC23CC4CC(CC(C4)C2)C3)[nH]1 [Example 92, N-[5-(2-Adamantan-1-yl-ethyl)-2-o-tolyl-1H-imidazol-4-yl]-isophthalamic Acid]	158	1020		
CCCc1nc(C(=O)Nc2cccc(C(=O)O)c2)c(CCC23CC4CC(CC(C4)C2)C3)[nH]1 [Example 81, 3-{[5-(2-Adamantan-1-yl-ethyl)-2-propyl-1H-imidazole-4-carbonyl]-amino}-benzoic Acid]	52.5	269		
Cc1ccccc1-c1nc(C(=O)Nc2cccc(C(=O)O)c2)c(CCc2ccccc2)[nH]1 [Example 87, 3-[(5-Phenethyl-2-o-tolyl-1H-imidazole-4-carbonyl)-amino]-benzoic Acid]	1170	2690		
CCc1ccccc1-c1nc(C(=O)Nc2cccc(C(=O)O)c2)c(CCC23CC4CC(CC(C4)C2)C3)[nH]1 [Example 158, 3-{[5-(2-Adamantan-1-yl-ethyl)-2-(2-ethyl-phenyl)-1H-imidazole-4-carbonyl]-amino}-benzoic Acid]	105	759		

Reference: US6479531B1, “Gastrin and cholecystokinin receptor ligands” (James Black Foundation Limited, priority 1998, dated 2002)
